Test results from PMC7658068, “Effects of a novel variant of the yeast γ-glutamyl kinase Pro1 on its enzymatic activity and sake brewing” (Journal of Industrial Microbiology & Biotechnology, 2020).

Assays:
[1] = target: T1, γ-glutamyl kinase Pro1 (GK) (Saccharomyces cerevisiae, UniProt P32264); assay: PK/LDH-coupled ADP assay, NADH at […] nm; type: biochemical; set-up: full-length ORF in pET15b (NdeI/XhoI), His-tag, E. coli BL21(DE3), Ni Sepharose; tag removal not mentioned; settings: 400 mM sodium glutamate, 5 mM ATP, 10 mM MgCl2, 100 mM HEPES-NaOH pH 7.4, 30 °C; no proline
T1 sequence (P32264 1-428): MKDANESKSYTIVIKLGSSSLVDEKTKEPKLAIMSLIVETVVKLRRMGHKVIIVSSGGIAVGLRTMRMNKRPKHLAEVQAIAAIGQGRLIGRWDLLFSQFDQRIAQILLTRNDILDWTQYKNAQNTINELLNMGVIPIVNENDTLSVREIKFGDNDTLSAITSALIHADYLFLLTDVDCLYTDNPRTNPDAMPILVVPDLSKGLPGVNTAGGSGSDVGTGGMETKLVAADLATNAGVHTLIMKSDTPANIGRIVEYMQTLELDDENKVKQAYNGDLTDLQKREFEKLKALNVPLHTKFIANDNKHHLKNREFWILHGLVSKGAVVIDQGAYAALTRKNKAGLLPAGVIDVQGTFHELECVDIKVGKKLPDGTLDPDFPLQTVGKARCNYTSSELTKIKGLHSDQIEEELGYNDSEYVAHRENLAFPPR

[2] = target: γ-glutamyl kinase Pro1 (GK) (Saccharomyces cerevisiae, UniProt P32264, I150T); assay: biochemical; settings: read-out: relative activity at 100 mM proline
γ-glutamyl kinase Pro1 (GK) (Saccharomyces cerevisiae, UniProt P32264, I150T), sequence (P32264 whole entry I150T): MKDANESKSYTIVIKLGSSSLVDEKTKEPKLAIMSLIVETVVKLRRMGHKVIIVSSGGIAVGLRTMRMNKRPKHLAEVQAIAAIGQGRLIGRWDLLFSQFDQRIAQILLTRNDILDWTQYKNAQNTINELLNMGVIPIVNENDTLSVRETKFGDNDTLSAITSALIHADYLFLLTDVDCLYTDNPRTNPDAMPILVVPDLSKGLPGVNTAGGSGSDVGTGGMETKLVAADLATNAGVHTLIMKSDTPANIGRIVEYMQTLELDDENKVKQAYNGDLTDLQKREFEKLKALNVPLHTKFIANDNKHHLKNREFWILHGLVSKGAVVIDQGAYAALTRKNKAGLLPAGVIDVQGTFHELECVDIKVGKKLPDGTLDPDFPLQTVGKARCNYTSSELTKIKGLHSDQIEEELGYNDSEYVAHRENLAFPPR

[3] = target: T1, γ-glutamyl kinase Pro1 (GK); settings: 400 mM sodium glutamate, 5 mM ATP, 10 mM MgCl2, 100 mM HEPES-NaOH pH 7.4, 30 °C; allosteric feedback inhibition
[4] = target: γ-glutamyl kinase Pro1 (GK) (Saccharomyces cerevisiae, UniProt P32264, Q79H); assay: biochemical; settings: read-out: relative activity at 100 mM proline
γ-glutamyl kinase Pro1 (GK) (Saccharomyces cerevisiae, UniProt P32264, Q79H), sequence (P32264 whole entry Q79H): as the sequence (P32264 whole entry I150T) above, with Q79H, T150I counted along it

activity at 100000 µM [2] [%] | activity at 100000 µM [4] [%] | SMILES | PK/LDH-coupled ADP assay, NADH at 340 nm [1] | relative activity with 0-5 mM proline [3]
– | – | Nc1ncnc2c1ncn2[C@@H]1O[C@H](COP(=O)(O)OP(=O)(O)OP(=O)(O)O)[C@@H](O)[C@H]1O [ATP] | GK activity was measured by the production of ADP in an enzyme-coupled system | –
59 | 96 | O=C(O)[C@@H]1CCCN1 [proline] | – | in the presence of proline, the GK activity of WT was markedly inhibited
– | – | N[C@@H](CCC(=O)O)C(=O)O [glutamate] | the reaction was initiated by the addition of sodium glutamate | –
